{"source": "patent US20150126467A1", "about": "“USE OF ALGINATE OLIGOMERS TO ENHANCE THE EFFECTS OF ANTIFUNGAL AGENTS” (AlgiIPharma AS, priority 2011, published 2015)", "format_in_all_cases": "cell-based", "key": {"[1]": {"tested_on": "various Aspergillus species", "assay": "Robotic MIC assay, summary over species (Example 4)", "conditions": "Aspergillus species tested", "method_in_brief": "(§1)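 Frozen spore/mycelium stocks were used as inoculum, sized for adequate 48 h growth. Two-fold antifungal dilutions were prepared in Mueller-Hinton broth with OligoG CF-5/20 (2, 6 or 10% assay concentrations; quadruplicate wells). Plates were incubated static at 34 °C, with OD600 read at about 24 and 48 h.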"}, "[2]": {"tested_on": "C. krusei 249/03(2) (ulceration)", "assay": "Robotic MIC assay, Candida strains (Example 2)", "conditions": "Pichia kudriavzevii, 48 h, Mueller-Hinton broth, read-out: Minimum Inhibitory Concentration (MIC)", "description": "(§2) A robotic MIC Assay was performed as follows. OligoG CF-5/20 were dissolved in medium (Mueller-Hinton broth or M19 broth depending on experiment) to 1.25 times of the desired assay concentrations (2, 6 and 10%). The antifungal agents under test were dissolved in medium without OligoG CF-5/20 and in medium with OligoG CF-5/20 at a concentration of 1.25 times the highest desired assay concentrations. For experiments where the effect of adding different concentrations of Na^+ was investigated, NaCl was dissolved in medium to the desired concentrations (10, 30 and 50 mM).\n(§3) Two-fold serial dilutions of antifungal agents were made in medium with different concentrations of OligoG CF-5/20, and the solutions were placed in four parallel wells in Nunc 384-well micro plates (30 μl per well in Nunc 242757 microplates). A group of 8 wells with no addition of antifungal agents for each OligoG CF-5/20 concentration was included on each microplate as growth reference. To each well in the 384-well assay plates was added 7.5 μl of medium inoculated with a frozen stock culture of Candida albicans (strain CCUG 39343).\n(§4) The micro plates were placed in plastic bags and incubated without shaking at 34° C. The optical density at 600 nm in the microwells was measured after approximately 13, 18, 24 and 34 hours of incubation, and the relative growth yield in each well was calculated based on the growth in the reference groups.\n(§5) The robotic assay described in Example 1 was employed in this Example. Strains were grown in Mueller-Hinton broth (LAB114 from Lab M Limited) and MIC values (μg ml-1) were determined for each antifungal after incubation for 48 h in the presence of 0, 2, 6 and 10% OligoG CF-5/20 G-fragments. […] OligoG CF-5/20 G-fragments were provided by AlgiPharma AS, Norway.\n(§6) Candida strains used were as follows: • C. albicans CCUG 39343 (strain from culture collection) • C. parapsillosis ATCC 22019T (strain from culture collection) • C. krusei 141/03 (candidosis) • C. krusei 249/03(2) (ulceration) • C. lusitaniae 994/01(2) (candidosis) • C. tropicalis 12 (vaginal) • C. tropicalis 75 (vaginal) • C. tropicalis 519468 (urinary) • C. tropicalis 544123 (urinary) • C. tropicalis 250/03 (candidosis) • C. tropicalis AG1 (oral) • C. tropicalis T2.2 (oral)"}, "[3]": {"tested_on": "C. lusitaniae 994/01(2) (candidosis)", "assay": "Robotic MIC assay, Candida strains (Example 2)", "conditions": "Clavispora lusitaniae, 48 h, Mueller-Hinton broth, read-out: Minimum Inhibitory Concentration (MIC)", "description": "as §2, §3, §4, §5, §6"}, "[4]": {"tested_on": "C. tropicalis 250/03 (candidosis)", "assay": "Robotic MIC assay, Candida strains (Example 2)", "conditions": "Candida tropicalis, 48 h, C. tropicalis 250/03 Candiosis, Mueller-Hinton broth, read-out: Minimum Inhibitory Concentration (MIC)", "description": "as §2, §3, §4, §5, §6"}, "[5]": {"tested_on": "C. tropicalis 12 (vaginal)", "assay": "Robotic MIC assay, Candida strains (Example 2)", "conditions": "Candida tropicalis, 48 h, Mueller-Hinton broth, read-out: Minimum Inhibitory Concentration (MIC)", "description": "as §2, §3, §4, §5, §6"}, "[6]": {"tested_on": "C. albicans CCUG 39343", "assay": "Robotic MIC assay, Candida strains (Example 2)", "conditions": "Candida albicans, CCUG39343, 48 h, Mueller-Hinton broth, read-out: Minimum Inhibitory Concentration (MIC)", "description": "as §2, §3, §4, §5, §6"}, "[7]": {"tested_on": "C. tropicalis 544123 (urinary)", "assay": "Robotic MIC assay, Candida strains (Example 2)", "conditions": "Candida tropicalis, 48 h, Mueller-Hinton broth, read-out: Minimum Inhibitory Concentration (MIC)", "description": "as §2, §3, §4, §5, §6"}, "[8]": {"tested_on": "C. krusei 141/03 (candidosis)", "assay": "Robotic MIC assay, Candida strains (Example 2)", "conditions": "Pichia kudriavzevii, 48 h, Mueller-Hinton broth, read-out: Minimum Inhibitory Concentration (MIC)", "description": "as §2, §3, §4, §5, §6"}, "[9]": {"tested_on": "C. tropicalis AG1 (oral)", "assay": "Robotic MIC assay, Candida strains (Example 2)", "conditions": "Candida tropicalis, 48 h, Mueller-Hinton broth, read-out: Minimum Inhibitory Concentration (MIC)", "description": "as §2, §3, §4, §5, §6"}, "[10]": {"tested_on": "C. tropicalis T2.2 (oral)", "assay": "Robotic MIC assay, Candida strains (Example 2)", "conditions": "Candida tropicalis, 48 h, Mueller-Hinton broth, read-out: Minimum Inhibitory Concentration (MIC)", "description": "as §2, §3, §4, §5, §6"}, "[11]": {"tested_on": "C. tropicalis 75 (vaginal)", "assay": "Robotic MIC assay, Candida strains (Example 2)", "conditions": "Candida tropicalis, 48 h, Mueller-Hinton broth, read-out: Minimum Inhibitory Concentration (MIC)", "description": "as §2, §3, §4, §5, §6"}, "[12]": {"tested_on": "C. tropicalis 519468 (urinary)", "assay": "Robotic MIC assay, Candida strains (Example 2)", "conditions": "Candida tropicalis, 48 h, Mueller-Hinton broth, read-out: Minimum Inhibitory Concentration (MIC)", "description": "as §2, §3, §4, §5, §6"}, "[13]": {"tested_on": "Aspergillus flavus CCUG 28296", "assay": "Robotic MIC assay, Aspergillus (Example 4)", "conditions": "Aspergillus flavus, CCUG23451 / CCUG28296, 48 h, Mueller-Hinton broth, read-out: Minimum Inhibitory Concentration (MIC)", "method_in_brief": "as §1"}}, "note": "Read-outs that look alike come from different tables or passages of the source."}
{"smiles": "CN(C/C=C/C#CC(C)(C)C)Cc1cccc2ccccc12", "note": "[Terbinafine, terbinafine]", "values": [{"measurement": "effect of addition of OligoG CF-5/20 on MIC values", "setting": "[1]", "result": "reduction in MIC values"}, {"measurement": "MIC", "setting": "[2]; 0% OligoG", "result": 4, "unit": "µg/mL"}, {"measurement": "MIC", "setting": "[2]; 2% OligoG", "result": 4, "unit": "µg/mL"}, {"measurement": "MIC", "setting": "[2]; 6% OligoG", "result": 8, "unit": "µg/mL"}, {"measurement": "MIC", "setting": "[2]; 10% OligoG", "result": 4, "unit": "µg/mL"}, {"measurement": "MIC", "setting": "[3]; 0% OligoG", "result": 8, "unit": "µg/mL"}, {"measurement": "MIC", "setting": "[3]; 2% OligoG", "result": 4, "unit": "µg/mL"}, {"measurement": "MIC", "setting": "[3]; 6% OligoG", "result": 4, "unit": "µg/mL"}, {"measurement": "MIC", "setting": "[3]; 10% OligoG", "result": 2, "unit": "µg/mL"}, {"measurement": "MIC", "setting": "[4]; 0% OligoG", "result": "> 32", "unit": "µg/mL"}, {"measurement": "MIC", "setting": "[4]; 2% OligoG", "result": "> 32", "unit": "µg/mL"}, {"measurement": "MIC", "setting": "[4]; 6% OligoG", "result": "> 32", "unit": "µg/mL"}, {"measurement": "MIC", "setting": "[4]; 10% OligoG", "result": "> 32", "unit": "µg/mL"}, {"measurement": "MIC", "setting": "[5]; 0% OligoG", "result": "> 32", "unit": "µg/mL"}, {"measurement": "MIC", "setting": "[5]; 2% OligoG", "result": 16, "unit": "µg/mL"}, {"measurement": "MIC", "setting": "[5]; 6% OligoG", "result": "> 32", "unit": "µg/mL"}, {"measurement": "MIC", "setting": "[5]; 10% OligoG", "result": 32, "unit": "µg/mL"}, {"measurement": "MIC", "setting": "[6]; 0% OligoG", "result": "> 32", "unit": "µg/mL"}, {"measurement": "MIC", "setting": "[6]; 2% OligoG", "result": "> 32", "unit": "µg/mL"}, {"measurement": "MIC", "setting": "[6]; 6% OligoG", "result": "> 32", "unit": "µg/mL"}, {"measurement": "MIC", "setting": "[6]; 10% OligoG", "result": "> 32", "unit": "µg/mL"}, {"measurement": "MIC", "setting": "[7]; 0% OligoG", "result": "> 32", "unit": "µg/mL"}, {"measurement": "MIC", "setting": "[7]; 2% OligoG", "result": "> 32", "unit": "µg/mL"}, {"measurement": "MIC", "setting": "[7]; 6% OligoG", "result": "> 32", "unit": "µg/mL"}, {"measurement": "MIC", "setting": "[7]; 10% OligoG", "result": "> 32", "unit": "µg/mL"}, {"measurement": "MIC", "setting": "[8]; 0% OligoG", "result": "> 32", "unit": "µg/mL"}, {"measurement": "MIC", "setting": "[8]; 2% OligoG", "result": "> 32", "unit": "µg/mL"}, {"measurement": "MIC", "setting": "[8]; 6% OligoG", "result": "> 32", "unit": "µg/mL"}, {"measurement": "MIC", "setting": "[8]; 10% OligoG", "result": "> 32", "unit": "µg/mL"}, {"measurement": "MIC", "setting": "[9]; 0% OligoG", "result": "> 32", "unit": "µg/mL"}, {"measurement": "MIC", "setting": "[9]; 2% OligoG", "result": 32, "unit": "µg/mL"}, {"measurement": "MIC", "setting": "[9]; 6% OligoG", "result": "> 32", "unit": "µg/mL"}, {"measurement": "MIC", "setting": "[9]; 10% OligoG", "result": "> 32", "unit": "µg/mL"}, {"measurement": "MIC", "setting": "[10]; 0% OligoG", "result": "> 32", "unit": "µg/mL"}, {"measurement": "MIC", "setting": "[10]; 2% OligoG", "result": "> 32", "unit": "µg/mL"}, {"measurement": "MIC", "setting": "[10]; 6% OligoG", "result": "> 32", "unit": "µg/mL"}, {"measurement": "MIC", "setting": "[10]; 10% OligoG", "result": 32, "unit": "µg/mL"}, {"measurement": "MIC", "setting": "[11]; 0% OligoG", "result": "> 32", "unit": "µg/mL"}, {"measurement": "MIC", "setting": "[11]; 2% OligoG", "result": "> 32", "unit": "µg/mL"}, {"measurement": "MIC", "setting": "[11]; 6% OligoG", "result": "> 32", "unit": "µg/mL"}, {"measurement": "MIC", "setting": "[11]; 10% OligoG", "result": "> 32", "unit": "µg/mL"}, {"measurement": "MIC", "setting": "[12]; 0% OligoG", "result": "> 32", "unit": "µg/mL"}, {"measurement": "MIC", "setting": "[12]; 2% OligoG", "result": "> 32", "unit": "µg/mL"}, {"measurement": "MIC", "setting": "[12]; 6% OligoG", "result": "> 32", "unit": "µg/mL"}, {"measurement": "MIC", "setting": "[12]; 10% OligoG", "result": "> 32", "unit": "µg/mL"}, {"measurement": "MIC", "setting": "[13]; A. flavus CCUG 23451, 0% OligoG", "result": 0.125, "unit": "µg/mL"}, {"measurement": "MIC", "setting": "[13]; A. flavus CCUG 23451, 2% OligoG", "result": 0.0625, "unit": "µg/mL"}, {"measurement": "MIC", "setting": "[13]; A. flavus CCUG 23451, 6% OligoG", "result": "< 0.0312", "unit": "µg/mL"}, {"measurement": "MIC", "setting": "[13]; A. flavus CCUG 23451, 10% OligoG", "result": "< 0.0312", "unit": "µg/mL"}]}
